These results are taken from ChEMBL document CHEMBL5143668, “Modular synthesis of 2,4-diaminoanilines as CNS drug-like non-covalent inhibitors of asparagine endopeptidase” (Bioorg Med Chem, 2022).

For orientation: IC50 means the concentration needed to halve the response being measured. The term inhibition denotes the change of the read-out against control, counted positive when it falls. One may read the pKa as the negative logarithm of the acid dissociation constant. A low value points to a group that gives up its proton readily.

A value given as a limit tells only on which side of the number the result lay.

One series has as its system L929. The series can be described thus: Cytotoxicity of mouse L929 cells assessed as reduction in cell viability at 5 to 500 nM measured after 24 hrs by MTT assay. Format: toxicity, cell-based. The following applies: l929, 24 h, 0.5 µM, dose 5-500 nM.
Another series has as its target T1, Legumain (Homo sapiens, UniProt Q99538).
T1 sequence (Q99538 whole entry): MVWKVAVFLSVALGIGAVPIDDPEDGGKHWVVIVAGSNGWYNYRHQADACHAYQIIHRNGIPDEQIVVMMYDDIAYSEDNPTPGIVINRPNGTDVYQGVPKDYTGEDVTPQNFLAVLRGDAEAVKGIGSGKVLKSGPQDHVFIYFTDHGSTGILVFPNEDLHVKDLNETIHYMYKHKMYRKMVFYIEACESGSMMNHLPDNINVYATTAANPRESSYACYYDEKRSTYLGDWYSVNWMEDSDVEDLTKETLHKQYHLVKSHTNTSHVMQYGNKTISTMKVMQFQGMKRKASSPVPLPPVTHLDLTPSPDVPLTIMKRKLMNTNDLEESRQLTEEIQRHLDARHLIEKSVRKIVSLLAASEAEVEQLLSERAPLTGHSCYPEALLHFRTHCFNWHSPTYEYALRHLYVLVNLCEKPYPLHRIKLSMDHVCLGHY
The series can be described thus: Inhibition of recombinant human Asparagine endopeptidase preincubated for 5 mins followed by Z-Ala-Ala-Asn-AMC substrate addition measured after 2 hrs by microplate reader.

The next series concerns the target T2, Legumain (Homo sapiens) (UniProt Q99538).
T2 sequence (whole entry): T1 sequence (Q99538 whole entry)
Nature of the series: Inhibition of recombinant human Asparagine endopeptidase at 10 uM preincubated for 5 mins followed by Z-Ala-Ala-Asn-AMC substrate addition measured after 2 hrs by microplate reader relative to control.

A short description of series [1]: Dissociation constant, pKa of compound. Format: physicochemical.

In the case of `CCOC(=O)C1CCN(c2cc(N3CCOCC3)ccc2N)CC1`, the Activity result with L929 was “Non-Toxic”. Besides, at Legumain, the IC50 is 89 nM. Moreover, the inhibition at Legumain (Homo sapiens) was 98%. The pKa in series [1] stood at 8.8.

On to `Nc1ccc(N2CCOCC2)cc1Cl`, for which the half-inhibitory concentration (IC50) on Legumain is more than 5000 nM. On Legumain (Homo sapiens), the inhibition came to 47%. Further, the pKa in series [1] is 4.05.

As to `Nc1ccc(N2CCSCC2)cc1Cl`, the concentration for half-maximal inhibition (IC50) at Legumain was more than 5000 nM. Also, the inhibition on Legumain (Homo sapiens) came out at 43%. The compound further displayed a pKa in series [1] of 5.61.

On to `Nc1ccc(N2CCSCC2)cc1N1CCSCC1`, for which, at Legumain, the IC50 stood at 757 nM. Besides, at Legumain (Homo sapiens), the inhibition worked out at 81%. This compound showed a pKa in series [1] of 10.1.

With `Nc1ccc(N2CCOCC2)cc1N1CCSCC1`, the concentration for half-maximal inhibition (IC50) on Legumain came to 498 nM. Also, the inhibition at Legumain (Homo sapiens) was found to be 89%. The compound further yielded a pKa in series [1] of 8.54.

`CCOC(=O)C1CCN(c2ccc(N)c(N3CCC(C(=O)OCC)CC3)c2)CC1`: the Activity result in the series with L929 is “Non-Toxic”. Moreover, on Legumain, the IC50 is 4830 nM. Moreover, the inhibition at Legumain (Homo sapiens) was found to be 53%. The compound further showed a pKa in series [1] of 10.6.

`Nc1ccc(N2CCOCC2)cc1N1CCOCC1`: the Activity entry in the series with L929 is on record as “Non-Toxic”. In addition, the 50% inhibitory concentration (IC50) at Legumain was 844 nM. For the same compound, at Legumain (Homo sapiens), the inhibition amounted to 100%. Further, in series [1], the pKa was found to be 8.54.

For `Nc1ccc(N2CCOCC2)cc1N1CCC[C@H]1CO`, the IC50 on Legumain is more than 5000 nM. In addition, at Legumain (Homo sapiens), the inhibition was 48%. The pKa in series [1] is 6.96.

Regarding `Nc1ccc(N2CCOCC2)cc1N1CCCC1`, the IC50 on Legumain is more than 5000 nM. At Legumain (Homo sapiens), the inhibition is 42%. This compound also returned a pKa in series [1] of 6.96.

On to `Nc1ccc(N2CCOCC2)cc1N1CCC2(CC1)OCCO2`, for which, at Legumain, the IC50 was 547 nM. For the same compound, the inhibition on Legumain (Homo sapiens) stood at 100%. Further, the pKa in series [1] worked out at 8.62.
